The values that follow come from patent US9023789B2, “Amylin analogs and pharmaceutical compositions thereof” (Novo Nordisk A/S, priority 2012, dated 2015).

Assay [1] deals with T1, human calcitonin (a) receptor in BHK570 cells (Homo sapiens, UniProt P30988).
T1 construct: expressed in transfected cells
T1 sequence (P30988 25-474): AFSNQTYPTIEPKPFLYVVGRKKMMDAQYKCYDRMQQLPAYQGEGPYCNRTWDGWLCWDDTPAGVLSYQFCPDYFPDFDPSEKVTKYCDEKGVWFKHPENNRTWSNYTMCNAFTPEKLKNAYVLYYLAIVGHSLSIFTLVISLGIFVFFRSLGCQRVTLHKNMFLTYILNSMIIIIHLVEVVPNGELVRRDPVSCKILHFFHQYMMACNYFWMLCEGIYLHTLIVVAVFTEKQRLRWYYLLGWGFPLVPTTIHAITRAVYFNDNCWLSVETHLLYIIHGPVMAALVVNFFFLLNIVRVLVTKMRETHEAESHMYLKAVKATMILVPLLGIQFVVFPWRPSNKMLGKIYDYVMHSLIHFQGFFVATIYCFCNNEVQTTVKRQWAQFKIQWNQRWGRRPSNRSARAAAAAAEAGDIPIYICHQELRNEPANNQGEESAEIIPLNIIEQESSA
Description: ASSAY (II)a functional assay, human calcitonin receptor (CRE luciferase). The note with it: read-out: hCTR funct. EC50. Format: cell-based. An excerpt: 1. Luciferase Assay Outline
Activation of calcitonin and amylin (coexpression of calcitonin receptor and receptor activity modifying proteins (RAMP)) receptors lead to increased intracellular concentrations of cAMP. Consequently, transcription is activated by promoters containing multiple copies of the cAMP response element (CRE). It is thus possible to measure amylin activity by the use of a CRE luciferase reporter gene introduced into BHK cells also expressing calcitonin or amylin receptors.
2. Construction of Calcitonin (a)- and Amylin 3(a)-Receptor/CRE-Luc Cell Line.
The cell line was further transfected with RAMP-3, using standard methods. This turns the calcitonin receptor into an amylin 3(a) receptor. Methotrexate, Neomycin, and Hygromycin are selection markers for luciferase, the calcitonin receptor, and RAMP-3, respectively.
To perform activity assays, BHK calcitonin (a) receptor- or amylin 3(a)-receptor/CRE-luc cells were seeded in white 96 well culture plates at a density of about 20.000 cells/well. […] After incubation overnight at 37° C. and 5% CO2, the growth medium was replaced by 50 μl/well assay medium (DMEM (without phenol red), Glutamax™, 10% FBS, and 10 mM Hepes, pH 7.4). Further, 50 μl/well of standard or sample in assay buffer were added. After 3 hours incubation at 37° C. and 5% CO2, the assay medium with standard or sample were removed and replaced by 100 μl/well PBS. Further, 100 μl/well LucLite™ was added. The plates were sealed and incubated at room temperature for 30 minutes. Finally, luminescence was measured on a TopCounter (Packard) in SPC (single photon counting) mode.

Assay [2] deals with T2, human calcitonin receptor (Homo sapiens, UniProt P30988).
T2 construct: expressed in transfected cells
T2 sequence (P30988 25-474): T1 sequence (P30988 25-474)
Description: ASSAY (VII) binding to the human calcitonin receptor (SPA, 125I-Calcitonin).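 Further: cell membranes (35 ng/µL) combined with SPA beads in 40 µL of pH 7.4 Hepes buffer, 384-well format, signal counted on a TopCounter instrument.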 The conditions noted are these: read-out: hCTR bind IC50.

The target in assay [3] is T3, rat calcitonin receptor (Rattus norvegicus, UniProt P32214).
T3 construct: expressed in transfected cells; host or cells: BHK tk'ts 13 (transient, FuGENE 6), membranes
T3 sequence (P32214 25-479 isoform P32214-2 limits assumed): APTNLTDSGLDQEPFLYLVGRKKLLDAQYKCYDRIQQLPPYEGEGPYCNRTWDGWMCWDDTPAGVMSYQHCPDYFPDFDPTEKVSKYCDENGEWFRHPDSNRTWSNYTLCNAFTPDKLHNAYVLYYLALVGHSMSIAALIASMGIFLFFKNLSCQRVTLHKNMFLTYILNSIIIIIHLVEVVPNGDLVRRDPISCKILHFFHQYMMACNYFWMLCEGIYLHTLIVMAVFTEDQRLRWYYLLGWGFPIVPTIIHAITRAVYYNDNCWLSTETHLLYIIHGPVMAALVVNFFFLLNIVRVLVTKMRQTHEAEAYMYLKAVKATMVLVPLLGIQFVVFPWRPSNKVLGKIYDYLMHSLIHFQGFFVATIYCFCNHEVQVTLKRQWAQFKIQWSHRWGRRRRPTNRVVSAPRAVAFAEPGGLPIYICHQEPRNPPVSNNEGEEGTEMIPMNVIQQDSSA
Description: ASSAY (VIII) binding to the rat calcitonin receptor. The note with it: Table 7, read-out: rCTR bind IC50. On the procedure: Assay (VIII)—Determination of Binding to the Rat Calcitonin Receptor
The BHK tk′ts 13 cells were transiently transfected with rat calcitonin receptor using FuGENE® 6 (Roche), according to the manufacturer's recommendations. Cells were grown in DMEM with 10% FBS and 1% Pen/Strep. Approximately 48 hours after transfection, the cells were harvested and membranes were prepared.

Assay [4] concerns the target T4, human amylin 3(a) receptor (human calcitonin receptor + RAMP-3) in BHK570 cells (Homo sapiens, UniProt O60896+P30988).
T4 construct: expressed in transfected cells
Description: ASSAY (II)a functional assay, human amylin receptor (CRE luciferase). The class given is cell-based. The conditions noted are these: for EC50: human amylin receptor functional potency, assay (II), read-out: hAmylin-R funct. EC50. The method, boiled down: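 Readout is luminescence from a cAMP-responsive CRE-luc reporter, developed with LucLite for 30 min at room temperature. Cells were treated for 3 h at 37 °C in 10% FBS/DMEM buffered with 10 mM Hepes (pH 7.4).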

The target of assay [5] is T5, human amylin receptor (membranes from Amylin 3(a)/CRE-luc cells) (Homo sapiens, UniProt O60896+P30988).
T5 construct: expressed in transfected cells
T5 sequence (P30988 25-474): T1 sequence (P30988 25-474)
T5 sequence (O60896 24-148 partner): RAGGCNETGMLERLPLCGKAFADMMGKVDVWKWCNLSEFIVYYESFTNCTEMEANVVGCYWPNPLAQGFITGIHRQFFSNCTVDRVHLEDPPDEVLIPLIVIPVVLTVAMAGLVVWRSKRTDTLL
Description: ASSAY (V) binding to the human amylin receptor (SPA, 125I-rat amylin).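 On all read-outs here: competition binding of cell membranes (35 ng/µL) mixed with SPA beads in 384-well plates at 40 µL total volume, read by scintillation counting.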 The note with it: for IC50: Table 4, read-out: hAmylin-R bind IC50.

The target in assay [6] is T6, rat amylin receptor (rat calcitonin receptor + rat RAMP 3) (Rattus norvegicus, UniProt P32214+Q9JJ73).
T6 construct: expressed in transfected cells; host or cells: BHK tk'ts 13 (transient, FuGENE 6), membranes
T6 sequence (P32214 25-479 isoform P32214-2 limits assumed): T3 sequence (P32214 25-479 isoform P32214-2 limits assumed)
T6 sequence (Q9JJ73 23-147 partner): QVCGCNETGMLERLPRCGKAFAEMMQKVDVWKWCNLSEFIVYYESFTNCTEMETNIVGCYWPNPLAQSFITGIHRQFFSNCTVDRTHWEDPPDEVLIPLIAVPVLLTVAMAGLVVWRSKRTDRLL
Description: ASSAY (VI) binding to the rat amylin receptor. The conditions noted are these: for IC50: binding to rat amylin receptor, read-out: rAmylin-R bind IC50. The method, boiled down:
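Membranes for this rat amylin receptor binding assay came from BHK tk′ts 13 cells. The cells were transiently transfected with rat calcitonin receptor using the FuGENE® 6 reagent from Roche, as the manufacturer recommends. The cells were collected approximately 48 hours after transfection, and membranes were then prepared.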

Setting [7] is: hCTR funct. EC50 over hAmylin-R funct. EC50.
The mark [8] stands for this setting: human functional selectivity: hCTR funct. EC50 / hAmylin-R funct. EC50.
[9] abbreviates: Table 5, selectivity, hCTR bind IC50 / hAmylin-R bind IC50.
Where [10] appears, read: Table 5a, selectivity, hCTR bind IC50 / hAmylin-R bind IC50.
Where [11] appears, read: Table 5b, selectivity, hCTR bind IC50 / hAmylin-R bind IC50.
[12] abbreviates: Table 7, human binding selectivity, included for comparison.
The mark [13] stands for this setting: Table 7a (preferred compounds), human binding selectivity, included for comparison.
Setting [14] is: ratio of human calcitonin receptor binding IC50 to human amylin receptor binding IC50.
[15] abbreviates: Table 7, rat binding selectivity, rCTR IC50 / rAmylin-R IC50.
The mark [16] stands for this setting: Table 7a (preferred compounds), rat binding selectivity, rCTR IC50 / rAmylin-R IC50.
[17] abbreviates: ratio of rCTR bind IC50 to rAmylin-R bind IC50.

Numbered stars: 1 amine (or outer) side, 2 acyl side, 3 side chain; on linkers, the order of the positions; unused ones are H or OH. Bridge positions count the residues as written; N and C are the ends. Peptide text beside a SMILES is read from it. * marks the point of attachment. C20 diacid = O=C(O)CCCCCCCCCCCCCCCCCCC(=O)*; γGlu = O=C(O)[C@H](CCC(=O)[*:2])N[*:1]

Take `CC[C@H](C)[C@H](NC(=O)[C@@H]1CCCN1C(=O)CNC(=O)[C@H](Cc1ccccc1)NC(=O)[C@H](CC(N)=O)NC(=O)[C@@H]1CCCN1C(=O)[C@H](CO)NC(=O)[C@H](CO)NC(=O)[C@H](Cc1c[nH]cn1)NC(=O)[C@H](CCCNC(=N)N)NC(=O)[C@H](CC(C)C)NC(=O)[C@H](Cc1ccccc1)NC(=O)[C@H](CCC(=O)O)NC(=O)[C@H](C)NC(=O)[C@H](CC(C)C)NC(=O)[C@H](CCCNC(=N)N)NC(=O)[C@H](CCC(N)=O)NC(=O)[C@@H](NC(=O)[C@H](C)NC(=O)[C@@H]1CSSC[C@H](NC(=O)[C@H](CCCCN)NC(=O)CC[C@H](NC(=O)CCCCCCCCCCCCCCCCCCC(=O)O)C(=O)O)C(=O)N[C@@H](CC(N)=O)C(=O)N[C@@H]([C@@H](C)O)C(=O)N[C@@H](C)C(=O)N[C@@H]([C@@H](C)O)C(=O)N1)[C@@H](C)O)C(=O)N[C@@H](CC(C)C)C(=O)N1CCC[C@H]1C(=O)N1CCC[C@H]1C(=O)N[C@H](C(=O)N[C@@H](CC(N)=O)C(=O)N[C@H](C(=O)NCC(=O)N[C@@H](CO)C(=O)N[C@@H](CC(N)=O)C(=O)N[C@H](C(=O)N[C@@H](Cc1ccc(O)cc1)C(N)=O)[C@@H](C)O)C(C)C)[C@@H](C)O` [Example 6] ({C20 diacid-γGlu}-KCNTATCATQRLAEFLRHSSPNFGPILPPTNVGSNTY-NH2; disulfide 2-7): the figures for the EC50 in assay [1] and in assay [4] were 0.729 nM and 0.128 nM, respectively. Besides, the IC50 in assay [2] is 19.9 nM; in assay [3], 51.6 nM; in assay [5], 0.996 nM; in assay [6] (Table 7), 2.37 nM. The “Ratio hCT/hAmylin funct.” value in assay [4] (setting [7]) and in assay [4] (setting [8]) was 5.7 throughout. The “Ratio hCT/hAmylin binding” value in assay [5] (setting [9]) is reported as 20.0; in assay [5] (setting [10]), 20.0; in assay [5] (setting [11]), 20.0; in assay [5] (Table 5c, selectivity, hCTR bind IC50 / hAmylin-R bind IC50) it was 20.0; in assay [5] (setting [12]), 20.0; in assay [5] (setting [13]), 20.0. In assay [5] (setting [14]), the “Ratio hCT/hAmylin binding” value came out at 20.0. Also, the “Ratio rCT/rAmylin binding” value in assay [6] (setting [15]), in assay [6] (setting [16]) and in assay [6] (setting [17]) was 21.7 throughout.
Regarding `CC(C)C[C@H](NC(=O)[C@H](CCCNC(=N)N)NC(=O)[C@H](CCC(N)=O)NC(=O)[C@@H](NC(=O)[C@H](C)NC(=O)[C@@H]1CSSC[C@H](NC(=O)[C@H](CCCCN)NC(=O)CC[C@H](NC(=O)CCCCCCCCCCCCCCCCCCC(=O)O)C(=O)O)C(=O)N[C@@H](CC(N)=O)C(=O)N[C@@H]([C@@H](C)O)C(=O)N[C@@H](C)C(=O)N[C@@H]([C@@H](C)O)C(=O)N1)[C@@H](C)O)C(=O)N[C@@H](C)C(=O)N[C@@H](CCC(=O)O)C(=O)N[C@@H](Cc1ccccc1)C(=O)N[C@@H](CC(C)C)C(=O)N[C@@H](CCCNC(=N)N)C(=O)N[C@@H](Cc1c[nH]cn1)C(=O)N[C@@H](CO)C(=O)N[C@@H](CO)C(=O)N1CCC[C@H]1C(=O)N[C@@H](CC(N)=O)C(=O)N[C@@H](Cc1ccccc1)C(=O)NCC(=O)N[C@@H](C)C(=O)N1CCC[C@H]1C(=O)N[C@@H](CC(C)C)C(=O)N[C@@H](CO)C(=O)N[C@@H](CO)C(=O)N[C@H](C(=O)N[C@@H](CC(N)=O)C(=O)N[C@H](C(=O)NCC(=O)N[C@@H](CO)C(=O)N[C@@H](CC(N)=O)C(=O)N[C@H](C(=O)N[C@@H](Cc1ccc(O)cc1)C(N)=O)[C@@H](C)O)C(C)C)[C@@H](C)O` [Example 7] ({C20 diacid-γGlu}-KCNTATCATQRLAEFLRHSSPNFGAPLSSTNVGSNTY-NH2; disulfide 2-7), the figures for the EC50 in assay [1] and in assay [4] were 1.16 nM and 0.255 nM, respectively. In addition, the IC50 in assay [2] came to 11.1 nM; in assay [3], 47.2 nM; in assay [5] it was 0.674 nM; in assay [6] (Table 7), 1.12 nM. In addition, the “Ratio hCT/hAmylin funct.” value in assay [4] (setting [7]) and in assay [4] (setting [8]) was 4.5 throughout. Besides, the “Ratio hCT/hAmylin binding” value in assay [5] (setting [9]), in assay [5] (setting [10]), in assay [5] (setting [11]), in assay [5] (setting [12]), in assay [5] (setting [13]) and in assay [5] (setting [14]) was 16.5 throughout. In addition, the “Ratio rCT/rAmylin binding” value in assay [6] (setting [15]), in assay [6] (setting [16]) and in assay [6] (setting [17]) was 42.0 each time.

As a reminder, the EC50 is the concentration giving half of the maximal effect. A word on the IC50: it is the concentration needed to halve the response being measured.
